Test [1] relates to hepatic fibrosis in rats induced by dimethylnitrosamine (DMN). Put plainly: Treatment effect on hepatic fibrosis in rats induced by dimethylnitrosamine (DMN). Type of test: in vivo, rat. Here is the method:
Pharmacological model: The hepatic fibrosis model was induced by intraperitoneal injections of dimethylnitrosamine at a dosage of […] rat wt, the injection was given on the first consecutive 3 days of each week over a period of 4 weeks, once per day.
Groups and drug administration: After establishing the model, the model rats were divided into model control, Fuzheng Huayu Prep I, Fuzheng Huayu Prep II, and (N-Acetylcysteine, NAC) groups, also normal rats was set as the normal control, with total 5 groups. The model rats in Fuzheng Huayu Prep I and II took orally Fuzheng Huayu decoction at the dosage of 4.6 g/kg rat wt from the beginning of the 5th week to end of the 8th week, one time per day for 4 weeks, NAC group received NAC at the dosage of 100 mg/kg wt, and controls took the same volume of saline. (body weight equivalent to 10 times of 65 kg adult dosage).

The test system of test [2] is liver fibrosis model in rat induced by CCl4. The test can be described thus: Prophylaxis action on liver fibrosis in rats induced by CCl4 with high lipid, low protein food. Type of test: in vivo. The procedure:
Pharmacological model: The liver fibrosis model in rat was induced by hypodermical injection of CCl4 and fed with the food containing high lipid and low protein. 100 wt % CCl4 was used at the first injection with a dosage of 1 ml/kg wt rat, then 40 wt % CCl4 in olive oil with a dosage of 3 ml/kg wt. was applied, twice per week and lasting for 2 weeks. During the first 2 weeks of intoxication, the rats were fed with the food containing 79.5 wt % maizena, 20 wt % grease and 0.5 wt % cholesterol, then with the pure maize food for later 4 weeks.
All dosages were 10 times human dosage with 65 kg by the same body weight.

Setting [3] is: DMN fibrotic rats, 4 weeks treatment, x ± s.
Where [4] appears, read: Preps 4.6 g/kg or NAC 100 mg/kg once daily, weeks 5-8.
Setting [5] is: CCl4 fibrotic rats, 6 weeks dosing, x ± s.
Where [6] appears, read: Preps 4.6 g/kg or VitE 50 mg/kg orally once daily for 6 weeks.

Marks after values point to notes of the source that are not given here.

Consider `CC(=O)N[C@@H](CS)C(=O)O` [NAC, N-Acetylcysteine], for which, in test [1] (setting [3]), the “Hepatic Hyp content” value was 482.1 ± 124.4 μg/g liver, the “Hepatic SOD activity” value is given as 252.2 ± 47.6^# 10^3 × NU/g protein, the “Serum ALT” value is recorded as 67.7 ± 36.1 U/L and the “Serum AST” value was 76.5 ± 25.5 U/L. Further, in test [1] (setting [3]), the Serum Alb worked out at 30.9 ± 5.5 g/L, the “Serum T. BIL” value amounted to 18.8 ± 2.8 µmol/L and the Serum T. Protein was found to be 60.4 ± 11.2 g/L. Moreover, in test [1] (setting [4]), the “Liver fibrotic stage S0 (number of rats)” value amounted to 0, the “Liver fibrotic stage S1 (number of rats)” value is 1, the “Liver fibrotic stage S2 (number of rats)” value was found to be 5 and the “Liver fibrotic stage S3 (number of rats)” value turned out to be 4. In test [1] (setting [4]), the “Liver fibrotic stage S4 (number of rats)” value stood at 2 and the “R (Ridit examination of liver fibrotic stages)” value was 0.415^#.

Consider Vitamin E [Vit E], for which the “Liver tissue pathological examination (hepatic inflammation, collagen deposition; HE and Sirius red staining), in words” value in test [2] (CCl4 fibrotic rats, vs. model control) is listed as “much better conditions of hepatic inflammation compared to the controls”. In test [2] (setting [5]), the “Hepatic Hyp” value turned out to be 296.2 ± 49.8 μg/g liver, the “Hepatic MDA” value is given as 4.5 ± 1.3 μmol/g protien, the “Hepatic SOD” value is 1062 ± 83 NU/g liver and the “Hepatic Triglyceride” value is listed as 12.6 ± 3.7 μg/g liver. In test [2] (setting [5]), the “Serum ALT” value stood at 106.4 ± 45.9 U/L, the “Serum AST” value amounted to 127.7 ± 37.2 U/L, the “Serum T. BIL” value is 14.1 ± 3.3 µmol/L and the “Serum T. Protein” value is given as 55.8 ± 4.2 g/L. Besides, in test [2] (setting [6]), the “Liver fibrotic stage S0 (number of rats)” value turned out to be 0, the “Liver fibrotic stage S1 (number of rats)” value is given as 6, the “Liver fibrotic stage S2 (number of rats)” value came out at 6 and the “Liver fibrotic stage S3 (number of rats)” value is 2. For the same compound, in test [2] (setting [6]), the “Liver fibrotic stage S4 (number of rats)” value worked out at 0 and the “R (Ridit examination of liver fibrotic stages)” value is on record as 0.506^#.

Values taken from patent US9138449B2, “Medicinal composition for liver diseases” (Shanghai Sundise Chinese Medicine Technology Development …, priority 2006, dated 2015).
